Measurements reported in patent US10844077B2, “Thiazolyl-containing compounds for treating proliferative diseases” (Dana-Farber Cancer Institute, Inc., priority 2014, dated 2020).
Where “and” joins values, the source holds several entries; their conditions need not be identical. Equal values may be shown once. Read-outs that look alike come from different tables or passages of the source.

Experiments:
Format in all cases: cell-based
[1] = molecular target: kinases in BCWM.1 cells (Homo sapiens, UniProt Q9Y2U5); conditions: MAP3K2; Lys1; 1 μM; GF
Experimental: (§1) The cells were harvested and lysed. […] Bound kinases were identified and quantitated by ACTIVX as described in Patricelli et al., Biochemistry, 2007, 46(2): 350-358. The compounds were tested in duplicates against duplicate or quadruplicate control samples.

[2] = molecular target: kinases in BCWM.1 cells (Homo sapiens, UniProt P06239); conditions: LCK; Activation Loop; 1 μM; GF
Chain of kinases in BCWM.1 cells (Homo sapiens, UniProt P06239) (P06239 2-509 limits assumed): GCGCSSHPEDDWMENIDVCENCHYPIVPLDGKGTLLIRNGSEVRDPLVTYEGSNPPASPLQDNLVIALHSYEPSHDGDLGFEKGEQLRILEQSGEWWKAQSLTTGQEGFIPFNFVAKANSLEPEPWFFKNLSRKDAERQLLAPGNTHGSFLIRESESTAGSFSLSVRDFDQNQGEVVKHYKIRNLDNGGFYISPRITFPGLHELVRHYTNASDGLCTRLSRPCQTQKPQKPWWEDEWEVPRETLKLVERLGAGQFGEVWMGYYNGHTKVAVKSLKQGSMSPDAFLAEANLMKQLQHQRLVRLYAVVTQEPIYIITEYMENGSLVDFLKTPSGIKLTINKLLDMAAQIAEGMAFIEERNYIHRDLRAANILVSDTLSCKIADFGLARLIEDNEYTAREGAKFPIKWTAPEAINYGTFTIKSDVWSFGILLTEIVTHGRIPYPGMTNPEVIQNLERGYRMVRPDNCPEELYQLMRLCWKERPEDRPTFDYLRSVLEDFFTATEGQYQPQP
Experimental: as §1

[3] = molecular target: kinases in BCWM.1 cells (Homo sapiens, UniProt P19784); conditions: CK2a2; Lys2; 1 μM; GF
Experimental: as §1

[4] = molecular target: kinases in BCWM.1 cells (Homo sapiens, UniProt P31749); conditions: AKT1; ATP Loop; 1 μM; GF
Experimental: as §1

[5] = molecular target: kinases in BCWM.1 cells (Homo sapiens, UniProt Q13164); conditions: Erk5; Lys2; 1 μM; GF
Chain of kinases in BCWM.1 cells (Homo sapiens, UniProt Q13164) (Q13164 2-816 limits assumed): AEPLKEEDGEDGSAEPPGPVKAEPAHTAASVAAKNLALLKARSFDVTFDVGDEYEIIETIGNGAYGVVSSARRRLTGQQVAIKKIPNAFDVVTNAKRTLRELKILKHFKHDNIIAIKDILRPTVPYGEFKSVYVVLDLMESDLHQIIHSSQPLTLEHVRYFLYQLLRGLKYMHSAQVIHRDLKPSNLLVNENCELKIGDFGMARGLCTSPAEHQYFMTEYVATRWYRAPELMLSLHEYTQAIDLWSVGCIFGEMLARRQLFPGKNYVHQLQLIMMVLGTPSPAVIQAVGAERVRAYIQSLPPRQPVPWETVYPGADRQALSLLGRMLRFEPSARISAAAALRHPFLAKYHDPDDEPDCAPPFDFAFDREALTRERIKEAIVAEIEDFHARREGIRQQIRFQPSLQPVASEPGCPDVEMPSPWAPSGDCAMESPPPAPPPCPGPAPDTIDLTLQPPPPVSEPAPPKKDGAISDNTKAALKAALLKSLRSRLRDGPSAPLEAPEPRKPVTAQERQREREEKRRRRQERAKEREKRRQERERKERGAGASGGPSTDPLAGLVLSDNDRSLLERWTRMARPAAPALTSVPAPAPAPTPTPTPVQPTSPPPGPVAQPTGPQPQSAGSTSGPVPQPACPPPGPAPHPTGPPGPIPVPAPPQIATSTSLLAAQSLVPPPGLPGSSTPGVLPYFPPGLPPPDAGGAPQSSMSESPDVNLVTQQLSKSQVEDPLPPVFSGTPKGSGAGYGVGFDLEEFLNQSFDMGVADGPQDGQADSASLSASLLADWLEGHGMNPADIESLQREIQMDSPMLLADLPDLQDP
Experimental: as §1

[6] = molecular target: kinases in BCWM.1 cells (Homo sapiens, UniProt P41279); conditions: COT; ATP Loop; 1 μM; GF
Experimental: as §1

[7] = molecular target: kinases in BCWM.1 cells (Homo sapiens, UniProt P49840); conditions: GSK3A; Lys2; 1 μM; GF
Chain of kinases in BCWM.1 cells (Homo sapiens, UniProt P49840) (P49840 2-483 limits assumed): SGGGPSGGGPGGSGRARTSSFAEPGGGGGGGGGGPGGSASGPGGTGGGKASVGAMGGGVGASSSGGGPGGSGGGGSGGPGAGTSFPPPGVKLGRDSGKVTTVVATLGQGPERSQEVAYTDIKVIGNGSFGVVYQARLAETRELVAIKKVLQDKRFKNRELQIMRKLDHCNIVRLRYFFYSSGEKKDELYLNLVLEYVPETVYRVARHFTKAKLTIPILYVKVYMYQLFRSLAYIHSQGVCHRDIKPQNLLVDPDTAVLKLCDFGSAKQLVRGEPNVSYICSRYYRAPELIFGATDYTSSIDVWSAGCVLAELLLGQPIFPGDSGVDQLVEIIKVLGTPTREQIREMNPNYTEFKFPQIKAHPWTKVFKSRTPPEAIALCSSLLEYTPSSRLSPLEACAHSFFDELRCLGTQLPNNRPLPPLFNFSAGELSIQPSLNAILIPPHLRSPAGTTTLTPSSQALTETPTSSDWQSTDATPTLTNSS
Experimental: as §1

[8] = molecular target: kinases in BCWM.1 cells (Homo sapiens, UniProt Q9Y2K2); conditions: QSK; Lys2; 1 μM, 90 min; GF
Experimental: as §1

[9] = molecular target: kinases in BCWM.1 cells (Homo sapiens, UniProt Q02156); conditions: PKCe; Lys2; 1 μM, 90 min; GF
Experimental: as §1

[10] = molecular target: kinases in BCWM.1 cells (Homo sapiens, UniProt Q13233); conditions: MAP3K1; Lys2; 1 μM; GF
Chain of kinases in BCWM.1 cells (Homo sapiens, UniProt Q13233) (Q13233 2-1512 limits assumed): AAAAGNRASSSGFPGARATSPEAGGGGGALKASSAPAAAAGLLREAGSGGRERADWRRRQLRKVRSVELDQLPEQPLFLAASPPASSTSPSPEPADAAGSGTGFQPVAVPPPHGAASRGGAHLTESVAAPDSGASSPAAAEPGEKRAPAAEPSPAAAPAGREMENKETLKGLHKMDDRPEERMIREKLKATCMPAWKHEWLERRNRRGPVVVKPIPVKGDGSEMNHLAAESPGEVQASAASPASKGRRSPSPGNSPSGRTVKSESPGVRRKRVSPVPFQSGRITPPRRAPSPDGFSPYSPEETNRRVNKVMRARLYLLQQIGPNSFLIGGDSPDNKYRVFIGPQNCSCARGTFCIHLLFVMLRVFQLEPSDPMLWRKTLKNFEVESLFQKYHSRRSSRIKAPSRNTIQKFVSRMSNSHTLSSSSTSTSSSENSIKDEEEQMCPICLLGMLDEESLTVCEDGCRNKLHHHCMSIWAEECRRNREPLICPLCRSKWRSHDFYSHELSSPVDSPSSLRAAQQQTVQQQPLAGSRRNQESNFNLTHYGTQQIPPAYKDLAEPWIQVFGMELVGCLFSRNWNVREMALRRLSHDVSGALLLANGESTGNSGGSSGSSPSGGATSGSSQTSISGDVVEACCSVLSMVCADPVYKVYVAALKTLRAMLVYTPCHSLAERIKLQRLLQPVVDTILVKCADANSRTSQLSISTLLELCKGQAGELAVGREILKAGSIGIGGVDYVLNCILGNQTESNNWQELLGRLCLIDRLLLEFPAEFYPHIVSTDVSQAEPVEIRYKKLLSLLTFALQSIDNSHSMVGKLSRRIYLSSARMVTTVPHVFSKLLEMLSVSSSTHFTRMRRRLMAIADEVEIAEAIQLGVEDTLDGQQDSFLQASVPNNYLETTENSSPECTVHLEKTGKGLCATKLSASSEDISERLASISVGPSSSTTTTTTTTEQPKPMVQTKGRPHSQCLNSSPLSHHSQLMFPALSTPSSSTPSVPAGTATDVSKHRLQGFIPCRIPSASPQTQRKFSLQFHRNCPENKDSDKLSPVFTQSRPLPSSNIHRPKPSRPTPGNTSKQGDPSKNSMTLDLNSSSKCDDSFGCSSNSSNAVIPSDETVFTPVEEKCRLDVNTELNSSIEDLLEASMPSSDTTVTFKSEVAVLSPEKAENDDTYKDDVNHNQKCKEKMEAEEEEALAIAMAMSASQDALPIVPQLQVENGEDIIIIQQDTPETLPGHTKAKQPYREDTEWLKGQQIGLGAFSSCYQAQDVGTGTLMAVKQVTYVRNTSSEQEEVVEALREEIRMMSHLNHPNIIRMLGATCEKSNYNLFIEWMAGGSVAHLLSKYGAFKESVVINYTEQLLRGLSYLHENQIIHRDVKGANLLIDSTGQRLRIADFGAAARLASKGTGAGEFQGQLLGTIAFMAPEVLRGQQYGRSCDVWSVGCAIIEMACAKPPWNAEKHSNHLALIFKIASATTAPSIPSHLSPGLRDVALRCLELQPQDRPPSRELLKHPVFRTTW
Experimental: as §1

[11] = molecular target: kinases in BCWM.1 cells (Homo sapiens, UniProt P17612); conditions: PKACa; Lys2; 1 μM, 90 min; GF
Experimental: as §1

[12] = molecular target: kinases in BCWM.1 cells (Homo sapiens, UniProt O14936); conditions: CASK; Lys1; 1 μM; GF
Experimental: as §1

[13] = molecular target: kinases in BCWM.1 cells (Homo sapiens, UniProt Q96L34); conditions: MARK4; Lys2; 1 μM; GF
Experimental: as §1

[14] = molecular target: kinases in BCWM.1 cells (Homo sapiens, UniProt Q9Y616); conditions: IRAK3; Lys1; 1 μM; GF
Experimental: as §1

[15] = molecular target: kinases in BCWM.1 cells (Homo sapiens, UniProt Q00535); conditions: CDK5; Lys2; 1 μM; GF
Experimental: as §1

[16] = molecular target: kinases in BCWM.1 cells (Homo sapiens, UniProt Q5S007); conditions: LRRK2; Lys2; 1 μM; GF
Experimental: as §1

[17] = molecular target: kinases in BCWM.1 cells (Homo sapiens, UniProt O94806); conditions: PKD3; Lys1; 1 μM, 90 min; GF
Experimental: as §1

[18] = molecular target: kinases in BCWM.1 cells (Homo sapiens, UniProt Q86XP1); conditions: DGKH; ATP; 1 μM; GF
Experimental: as §1

[19] = molecular target: kinases in BCWM.1 cells (Homo sapiens, UniProt Q15831); conditions: LKB1; Lys2; 1 μM; GF
Experimental: as §1

[20] = molecular target: kinases in BCWM.1 cells (Homo sapiens, UniProt Q8IU85); conditions: CaMKld; Lys1; 1 μM; GF
Experimental: as §1

[21] = molecular target: kinases in BCWM.1 cells (Homo sapiens, UniProt P15056); conditions: BRAF; Lys2; 1 μM; GF
Chain of kinases in BCWM.1 cells (Homo sapiens, UniProt P15056) (P15056 2-766 limits assumed): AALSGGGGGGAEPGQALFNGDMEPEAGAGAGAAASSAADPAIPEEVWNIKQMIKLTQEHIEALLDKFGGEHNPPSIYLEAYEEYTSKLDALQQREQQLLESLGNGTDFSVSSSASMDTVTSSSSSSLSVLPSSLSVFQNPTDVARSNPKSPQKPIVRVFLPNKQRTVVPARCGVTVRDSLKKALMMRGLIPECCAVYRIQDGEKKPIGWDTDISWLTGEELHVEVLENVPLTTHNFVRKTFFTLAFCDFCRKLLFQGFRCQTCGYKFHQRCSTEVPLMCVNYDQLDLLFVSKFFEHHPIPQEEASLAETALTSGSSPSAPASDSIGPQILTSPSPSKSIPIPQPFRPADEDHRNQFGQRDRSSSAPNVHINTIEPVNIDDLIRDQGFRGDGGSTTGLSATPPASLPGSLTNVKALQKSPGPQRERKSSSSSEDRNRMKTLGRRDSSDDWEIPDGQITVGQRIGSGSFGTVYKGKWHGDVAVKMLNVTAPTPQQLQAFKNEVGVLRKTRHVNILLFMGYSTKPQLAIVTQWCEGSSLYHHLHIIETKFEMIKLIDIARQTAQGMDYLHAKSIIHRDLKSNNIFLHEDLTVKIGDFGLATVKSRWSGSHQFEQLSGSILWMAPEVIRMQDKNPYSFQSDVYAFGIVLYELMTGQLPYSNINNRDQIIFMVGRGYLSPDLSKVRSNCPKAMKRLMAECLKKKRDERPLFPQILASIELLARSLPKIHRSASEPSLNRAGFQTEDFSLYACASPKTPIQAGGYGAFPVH
Experimental: as §1

[22] = molecular target: kinases in BCWM.1 cells (Homo sapiens, UniProt P11802); conditions: CDK4; Lys2; 1 μM; GF
Chain of kinases in BCWM.1 cells (Homo sapiens, UniProt P11802) (P11802 2-303 limits assumed): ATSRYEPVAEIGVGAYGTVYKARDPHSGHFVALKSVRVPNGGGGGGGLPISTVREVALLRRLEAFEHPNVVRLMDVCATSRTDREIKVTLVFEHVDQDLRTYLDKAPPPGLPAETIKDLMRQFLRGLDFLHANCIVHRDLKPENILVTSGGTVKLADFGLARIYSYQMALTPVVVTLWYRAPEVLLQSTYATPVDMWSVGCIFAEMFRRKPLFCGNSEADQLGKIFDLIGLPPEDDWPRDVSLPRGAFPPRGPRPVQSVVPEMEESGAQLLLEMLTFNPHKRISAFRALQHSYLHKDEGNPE
Experimental: as §1

[23] = molecular target: kinases in BCWM.1 cells (Homo sapiens, UniProt P51451); conditions: BLK; Activation Loop; 1 μM; GF
Experimental: as §1

[24] = molecular target: kinases in BCWM.1 cells (Homo sapiens, UniProt O95835); conditions: LATS1; Lys1; 1 μM; GF
Experimental: as §1

[25] = molecular target: kinases in BCWM.1 cells (Homo sapiens, UniProt P49841); conditions: GSK3B; Lys2; 1 μM; GF
Experimental: as §1

[26] = molecular target: kinases in BCWM.1 cells (Homo sapiens, UniProt Q9NRM7); conditions: LATS2; Lys2; 1 μM; GF
Experimental: as §1

[27] = molecular target: kinases in BCWM.1 cells (Homo sapiens, UniProt Q13418); conditions: ILK, 1 μM, GF
Experimental: as §1

[28] = molecular target: kinases in BCWM.1 cells (Homo sapiens, UniProt Q96RR4); conditions: CaMKK2; Lys2; 1 μM; GF
Chain of kinases in BCWM.1 cells (Homo sapiens, UniProt Q96RR4) (Q96RR4 2-588 limits assumed): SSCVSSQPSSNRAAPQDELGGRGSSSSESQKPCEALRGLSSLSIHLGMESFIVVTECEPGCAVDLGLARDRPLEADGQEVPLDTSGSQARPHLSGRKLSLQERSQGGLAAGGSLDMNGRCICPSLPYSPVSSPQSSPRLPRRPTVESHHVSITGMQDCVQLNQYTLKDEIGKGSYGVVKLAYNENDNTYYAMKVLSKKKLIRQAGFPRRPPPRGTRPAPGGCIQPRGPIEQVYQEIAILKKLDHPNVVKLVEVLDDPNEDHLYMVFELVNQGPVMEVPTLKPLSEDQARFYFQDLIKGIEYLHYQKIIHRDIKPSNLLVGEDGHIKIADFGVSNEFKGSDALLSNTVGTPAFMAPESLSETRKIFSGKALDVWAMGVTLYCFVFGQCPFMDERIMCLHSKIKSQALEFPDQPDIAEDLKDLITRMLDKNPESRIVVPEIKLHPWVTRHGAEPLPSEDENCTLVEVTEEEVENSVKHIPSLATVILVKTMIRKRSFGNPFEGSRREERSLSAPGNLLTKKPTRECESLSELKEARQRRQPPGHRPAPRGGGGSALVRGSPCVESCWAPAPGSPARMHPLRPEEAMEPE
Experimental: as §1

[29] = molecular target: kinases in BCWM.1 cells (Homo sapiens, UniProt P78356); conditions: PIP4K2B; ATP; 1 μM, 90 min; GF
Experimental: as §1

[30] = molecular target: kinases in BCWM.1 cells (Homo sapiens, UniProt Q16566); conditions: CaMK4; Lys2; 1 μM; GF
Experimental: as §1

CCC(=O)N1CC[C@H](Nc2nccc(Nc3ncc(C(=O)Nc4c(C)cccc4C)s3)n2)C1 [Example I-9]
% change of MS signal compared to control sample [1]: −16.2% and −8.3%
% change of MS signal compared to control sample [2]: 61.6% and 82.8%
% change of MS signal compared to control sample [3]: 7% and −1.8%
% change of MS signal compared to control sample [4]: −25.1% and −16.8%
% change of MS signal compared to control sample [5]: −1.8% and 1.1%
% change of MS signal compared to control sample [6]: −37.3% and −40.3%
% change of MS signal compared to control sample [7]: 2.3% and 1.9%
% change of MS signal compared to control sample [8]: 2.5%
% change of MS signal compared to control sample [9]: −7%
% change of MS signal compared to control sample [10]: 11.1% and 9.8%
% change of MS signal compared to control sample [11]: −8.4%
% change of MS signal compared to control sample [12]: −10.4%
% change of MS signal compared to control sample [13]: −12.2% and −10.2%
% change of MS signal compared to control sample [14]: 7.2% and −1.4%
% change of MS signal compared to control sample [15]: −1.1% and 7.7%
% change of MS signal compared to control sample [16]: −26.4% and −21.7%
% change of MS signal compared to control sample [17]: −9.2%
% change of MS signal compared to control sample [18]: −21.2% and −12.5%
% change of MS signal compared to control sample [19]: −11.2% and −7.4%
% change of MS signal compared to control sample [20]: −7.5% and −4.6%
% change of MS signal compared to control sample [21]: −18.3% and −12.9%
% change of MS signal compared to control sample [22]: 1.2% and 3.4%
% change of MS signal compared to control sample [23]: 93.7% and 95.4%
% change of MS signal compared to control sample [24]: −2.8% and 5.4%
% change of MS signal compared to control sample [25]: −9.8% and −1.3%
% change of MS signal compared to control sample [26]: −12.3% and −5.1%
% change of MS signal compared to control sample ([27]; Lys1): −1.9% and 1.2%
% change of MS signal compared to control sample ([27]; Protein Kinase Domain): 24.5% and 12.4%
% change of MS signal compared to control sample [28]: −4.9% and 0.5%
% change of MS signal compared to control sample [29]: −19%
% change of MS signal compared to control sample [30]: −10.3% and −13.1%
